One test deals with CHIKV replicon. In words: microbe, parasite or virus in culture. Format: cell-based, Chikungunya virus (CHIKV).

Counter-ions that a name gives are not always drawn.

Regarding `CCCCNC(=O)NS(=O)(=O)c1ccc(C)cc1` [Tolbutamide], in the test on SFV-Rluc, the “SFV replication % left (surviving fraction, remaining percentage of SFV replication)” value is reported as 80.2%. Also, the “CHIKV replicon % left” value with CHIKV replicon is 100.9%.

For the molecule `CC(=O)Nc1nnc(S(N)(=O)=O)s1` [Acetazolamide], the “SFV replication % left (surviving fraction, remaining percentage of SFV replication)” value in the test on SFV-Rluc was found to be 71.3%. Moreover, the “CHIKV replicon % left” value in the test on CHIKV replicon is listed as 102.2%.

For the molecule `O=C1CC(=O)NC(=O)N1` [Barbituric acid], the “SFV replication % left (surviving fraction, remaining percentage of SFV replication)” value in the test with SFV-Rluc was determined as 48.8%. The “CHIKV replicon % left” value in the test with CHIKV replicon came out at 88.4%.

Take `CC(C)(O)C(Cl)(Cl)Cl` [Chlorobutanol]: the “SFV replication % left (surviving fraction, remaining percentage of SFV replication)” value in the test on SFV-Rluc worked out at 84.2%. Also, the “CHIKV replicon % left” value in the test with CHIKV replicon is reported as 95.1%.

As for `COc1ccc2oc(=O)cc(C)c2c1` [6-Methoxy-4-methylcoumarin], in the test with SFV-Rluc, the “SFV replication % left (surviving fraction, remaining percentage of SFV replication)” value was determined as 66.6%. For the same molecule, in the test on CHIKV replicon, the “CHIKV replicon % left” value is given as 85.4%.

As for `Cc1c(C)c2c(c(C)c1O)CCC(C)(C(=O)O)O2` (stereo not shown), in the test on SFV-Rluc, the “SFV replication % left (surviving fraction, remaining percentage of SFV replication)” value is reported as 76.9%. The “CHIKV replicon % left” value in the test with CHIKV replicon was 101.5%.

Consider `CN(C)CCC=C1c2ccccc2COc2ccccc21` [Doxepin hydrochloride], for which the “SFV replication % left (surviving fraction, remaining percentage of SFV replication)” value with SFV-Rluc turned out to be 21.6%. Moreover, in the test on CHIKV replicon, the “CHIKV replicon % left” value worked out at 87.2%.

As to `CC(O)Cn1cnc2c1c(=O)n(C)c(=O)n2C` (stereo not drawn) [7-(β-Hydroxypropyl)theophylline], the “SFV replication % left (surviving fraction, remaining percentage of SFV replication)” value with SFV-Rluc came to 125.5%. The “CHIKV replicon % left” value with CHIKV replicon is listed as 70.9%.

`Cc1cccc(C)c1NC(=O)C1CCCCN1C` (stereo not shown) [Mepivacaine hydrochloride]: the “SFV replication % left (surviving fraction, remaining percentage of SFV replication)” value in the test with SFV-Rluc came out at 74.9%. Also, the “CHIKV replicon % left” value in the test on CHIKV replicon is given as 62.2%.

On to `CC(C)(C)NC[C@H](O)COc1cccc2c1CCCC2=O` [I-Bunolol], for which the “SFV replication % left (surviving fraction, remaining percentage of SFV replication)” value with SFV-Rluc worked out at 59.6%. For the same molecule, in the test on CHIKV replicon, the “CHIKV replicon % left” value was 105.4%.

Take `CC(C)NCC(O)c1ccc(NS(C)(=O)=O)cc1` (stereo not shown) [Sotalol hydrochloride]: the “SFV replication % left (surviving fraction, remaining percentage of SFV replication)” value in the test on SFV-Rluc was 100.5%. The “CHIKV replicon % left” value with CHIKV replicon was determined as 80.1%.

Regarding `CC(C)(C)NCC(O)COc1ccc(NC(=O)NC2CCCCC2)cc1` (stereo not shown) [Talinolol], the “SFV replication % left (surviving fraction, remaining percentage of SFV replication)” value with SFV-Rluc is given as 76.9%. In addition, the “CHIKV replicon % left” value with CHIKV replicon amounted to 91.8%.

As to `COc1ccc2ccc(=O)oc2c1` [Herniarin], in the test with SFV-Rluc, the “SFV replication % left (surviving fraction, remaining percentage of SFV replication)” value is reported as 53.2%. Moreover, the “CHIKV replicon % left” value in the test on CHIKV replicon worked out at 102.2%.

Turning to `Cc1ccc2oc(=O)ccc2c1` [6-Methylcoumarin], the “SFV replication % left (surviving fraction, remaining percentage of SFV replication)” value with SFV-Rluc is listed as 83.6%. The “CHIKV replicon % left” value in the test on CHIKV replicon was determined as 106.5%.

`O=C(N[C@H](CO)[C@H](O)c1ccc([N+](=O)[O-])cc1)C(Cl)Cl` [Chloramphenicol]: in the test on SFV-Rluc, the “SFV replication % left (surviving fraction, remaining percentage of SFV replication)” value is 73.8%. Also, the “CHIKV replicon % left” value in the test with CHIKV replicon came out at 53.2%.

Turning to `CNC(C)Cc1ccc(O)cc1.CNC(C)Cc1ccc(O)cc1.O=S(=O)(O)O` (stereo not shown) [Pholedrine sulfate], the “SFV replication % left (surviving fraction, remaining percentage of SFV replication)” value in the test on SFV-Rluc is given as 92.8%. The “CHIKV replicon % left” value in the test on CHIKV replicon came to 81.5%.

As to `C=CC[C@]1(O)CC[C@H]2[C@@H]3CCC4=CCCC[C@@H]4[C@H]3CC[C@@]21C`, the “SFV replication % left (surviving fraction, remaining percentage of SFV replication)” value in the test on SFV-Rluc came to 37.2%. The “CHIKV replicon % left” value in the test with CHIKV replicon came out at 49.4%.

On to `NCC(O)c1cccc(O)c1` (stereo not shown) [Norfenefrine], for which the “SFV replication % left (surviving fraction, remaining percentage of SFV replication)” value with SFV-Rluc was found to be 126.3%. The “CHIKV replicon % left” value in the test on CHIKV replicon was found to be 96.6%.

In the case of `NC(=O)N1c2ccccc2C=Cc2ccccc21` [Carbamazepine], in the test on SFV-Rluc, the “SFV replication % left (surviving fraction, remaining percentage of SFV replication)” value was 57.2%. In addition, the “CHIKV replicon % left” value in the test with CHIKV replicon amounted to 100.2%.

For the molecule `Cc1cc(C(C)(C)C)cc(C)c1CC1=NCCN1` [Xylometazoline], in the test on SFV-Rluc, the “SFV replication % left (surviving fraction, remaining percentage of SFV replication)” value is recorded as 94.2%. Further, the “CHIKV replicon % left” value in the test on CHIKV replicon stood at 78.2%.
